pIC50: −log10 of the molar value.
Legend:
GABAA α5β3γ2 receptors = target: T1, GABAA α5β3γ2 receptors (Rattus norvegicus, UniProt P18508+P19969); assay: Xenopus oocyte expression assay, modulation of GABA current; format: cell-based; settings: saturating 1-10 μM modulator with EC50 GABA (30 μM); mean±S.D.
T1 construct: expressed in transfected cells; host or cells: Xenopus laevis oocytes injected with cRNA

α6 GABAA receptor = target: T2, α6 GABAA receptor (Homo sapiens, UniProt P18507+Q16445); assay: Modulation of GABA induced currents in HEK cells; format: cell-based; settings: 0.1 to 100 μM
T2 construct: expressed in transfected cells; host or cells: HEK cells
Description: (§1) In this study, we assessed the functional capacity of βCCt to competitively antagonize the anxiolytic versus the sedative properties of the prototypical BDZ, chlordiazepoxide.
(§2) FIGS. 21-26 represent the molecular biology data in α1-α6 GABAA receptors. […] In other words, βCCt behaves like chlordiazepoxide at the anxiety receptors. It is important to note that these effects occur at 50-100 μM, and would most likely be observed at moderate doses.

α1 GABAA receptor = target: T3, α1 GABAA receptor (Homo sapiens, UniProt P14867+P18507); assay: Modulation of GABA induced currents in HEK cells; format: cell-based; settings: 0.1 to 100 μM
T3 construct: expressed in transfected cells; host or cells: HEK cells
Description: as §1, §2

α2 GABAA receptor = target: T4, α2 GABAA receptor (Homo sapiens, UniProt P18507+P47869); assay: Modulation of GABA induced currents in HEK cells; format: cell-based
T4 construct: expressed in transfected cells; host or cells: HEK cells
Description: as §1, §2

α4 GABAA receptor = target: T5, α4 GABAA receptor (Homo sapiens, UniProt P18507+P48169); assay: Modulation of GABA induced currents in HEK cells; format: cell-based; settings: 0.1 to 100 μM
T5 construct: expressed in transfected cells; host or cells: HEK cells
Description: as §1, §2

α5 GABAA receptor = target: T6, α5 GABAA receptor (Homo sapiens, UniProt P18507+P31644); assay: Modulation of GABA induced currents in HEK cells; format: cell-based; settings: 0.1 to 100 μM
T6 construct: expressed in transfected cells; host or cells: HEK cells
Description: as §1, §2

α3 GABAA receptor = target: T7, α3 GABAA receptor (Homo sapiens, UniProt P18507+P34903); assay: Modulation of GABA induced currents in HEK cells; format: cell-based
T7 construct: expressed in transfected cells; host or cells: HEK cells
Description: as §1, §2

α1β3γ2 GABAA receptor = target: T8, α1β3γ2 GABAA receptor (Homo sapiens, UniProt P14867+P18507); settings: recombinant receptors (Cox et al., 1995); cited from earlier work
T8 construct: expressed in transfected cells

GABAA α4β3γ2 receptors = assay: Xenopus oocyte expression assay, modulation of GABA current; format: cell-based, rat
GABAA α1β3γ2 receptors = target: T9, GABAA α1β3γ2 receptors (Rattus norvegicus, UniProt P18508+P62813); assay: as above; format: cell-based; settings: saturating 1-10 μM modulator with EC50 GABA (50 μM); mean±S.D.
T9 construct: expressed in transfected cells; host or cells: Xenopus laevis oocytes injected with cRNA

[1] = target: wild type BDZ receptors (cerebral cortical membranes); assay: Radioligand displacement at cerebral cortical membranes; format: binding; settings: read-out: Displacement of [3H] flunitrazepam in vitro, IC50; rat cerebral cortical membranes; mean of three or more experiments
Description: [^3H] […] In brief, rats were sacrificed by decapitation, and the cerebral cortex removed. […] Tissue was resuspended in an equal volume of buffer and recentrifuged. This procedure was repeated a total of three times and the tissue resuspended in 50 volumes of buffer. Incubations (1 mL) consisted of tissue (0.3 mL), drug solution (0.1 mL), buffer (0.5 mL) and radioligand (0.1 mL). […] The IC50 values were estimated using Hill plots.

T4 sequence (P47869 29-451): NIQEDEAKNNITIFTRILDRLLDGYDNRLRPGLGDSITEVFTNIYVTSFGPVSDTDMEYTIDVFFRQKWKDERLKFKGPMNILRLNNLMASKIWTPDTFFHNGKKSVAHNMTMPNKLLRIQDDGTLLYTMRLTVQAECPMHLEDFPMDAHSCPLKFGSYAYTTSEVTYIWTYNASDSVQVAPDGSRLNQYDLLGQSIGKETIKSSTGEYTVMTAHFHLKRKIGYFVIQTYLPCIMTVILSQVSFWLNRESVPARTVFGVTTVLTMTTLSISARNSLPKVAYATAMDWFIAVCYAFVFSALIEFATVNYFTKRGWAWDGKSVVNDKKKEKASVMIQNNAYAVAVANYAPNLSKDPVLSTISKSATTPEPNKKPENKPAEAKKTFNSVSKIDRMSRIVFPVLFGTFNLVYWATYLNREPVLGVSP
T4 sequence (P28472 26-473 partner): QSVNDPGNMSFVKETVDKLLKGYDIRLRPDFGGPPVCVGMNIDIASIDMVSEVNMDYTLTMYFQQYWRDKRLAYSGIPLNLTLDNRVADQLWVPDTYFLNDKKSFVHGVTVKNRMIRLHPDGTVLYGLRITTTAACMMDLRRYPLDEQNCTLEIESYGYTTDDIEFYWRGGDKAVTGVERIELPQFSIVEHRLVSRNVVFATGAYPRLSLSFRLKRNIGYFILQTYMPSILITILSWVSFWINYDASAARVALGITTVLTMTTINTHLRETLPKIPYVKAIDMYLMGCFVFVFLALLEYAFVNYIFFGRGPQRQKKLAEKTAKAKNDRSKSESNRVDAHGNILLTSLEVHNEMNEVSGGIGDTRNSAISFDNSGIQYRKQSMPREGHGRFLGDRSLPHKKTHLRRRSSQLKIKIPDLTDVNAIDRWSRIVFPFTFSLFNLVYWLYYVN
T4 sequence (P18507 40-475): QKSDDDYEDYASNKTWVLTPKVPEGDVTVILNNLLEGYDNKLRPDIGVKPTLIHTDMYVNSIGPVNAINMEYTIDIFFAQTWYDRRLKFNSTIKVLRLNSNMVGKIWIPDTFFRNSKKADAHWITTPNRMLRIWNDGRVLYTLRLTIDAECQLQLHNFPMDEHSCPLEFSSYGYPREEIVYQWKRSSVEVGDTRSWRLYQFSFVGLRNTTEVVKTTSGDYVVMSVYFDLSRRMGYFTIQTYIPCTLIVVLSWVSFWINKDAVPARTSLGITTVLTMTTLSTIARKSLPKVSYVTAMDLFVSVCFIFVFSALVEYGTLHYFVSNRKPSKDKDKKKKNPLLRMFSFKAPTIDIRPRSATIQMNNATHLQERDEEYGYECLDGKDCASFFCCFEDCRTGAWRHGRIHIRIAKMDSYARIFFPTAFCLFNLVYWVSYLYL
T7 sequence (P34903 29-492): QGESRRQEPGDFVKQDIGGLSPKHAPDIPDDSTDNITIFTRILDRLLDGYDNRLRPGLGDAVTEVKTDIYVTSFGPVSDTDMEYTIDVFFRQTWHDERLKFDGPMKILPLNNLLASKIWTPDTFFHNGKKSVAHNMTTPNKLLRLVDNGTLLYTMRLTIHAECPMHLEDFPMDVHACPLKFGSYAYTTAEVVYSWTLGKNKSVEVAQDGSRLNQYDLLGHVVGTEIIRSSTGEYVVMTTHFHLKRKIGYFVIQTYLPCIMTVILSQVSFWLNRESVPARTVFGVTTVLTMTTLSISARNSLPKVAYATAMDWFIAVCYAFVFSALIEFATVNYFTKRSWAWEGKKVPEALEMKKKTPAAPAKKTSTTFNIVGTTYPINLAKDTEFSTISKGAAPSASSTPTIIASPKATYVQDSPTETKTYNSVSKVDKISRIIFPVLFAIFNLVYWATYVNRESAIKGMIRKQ
T7 sequence (P28472 26-473 partner): as the sequence (P28472 26-473 partner) above
T7 sequence (P18507 40-475): as the sequence (P18507 40-475) above
T2 sequence (Q16445 20-453): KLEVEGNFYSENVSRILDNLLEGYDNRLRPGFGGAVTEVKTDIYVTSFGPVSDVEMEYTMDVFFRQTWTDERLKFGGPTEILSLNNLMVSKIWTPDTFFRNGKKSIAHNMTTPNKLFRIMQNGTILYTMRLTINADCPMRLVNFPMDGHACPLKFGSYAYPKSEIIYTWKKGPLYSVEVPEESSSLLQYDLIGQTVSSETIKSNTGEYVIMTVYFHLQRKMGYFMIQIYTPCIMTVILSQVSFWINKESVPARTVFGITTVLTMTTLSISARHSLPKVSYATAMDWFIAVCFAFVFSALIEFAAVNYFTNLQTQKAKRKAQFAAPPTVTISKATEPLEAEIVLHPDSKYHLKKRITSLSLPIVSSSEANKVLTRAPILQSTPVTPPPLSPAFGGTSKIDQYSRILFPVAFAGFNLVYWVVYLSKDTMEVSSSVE
T2 sequence (P28472 26-473 partner): as the sequence (P28472 26-473 partner) above
T2 sequence (P18507 40-475): as the sequence (P18507 40-475) above
T6 sequence (P31644 32-462): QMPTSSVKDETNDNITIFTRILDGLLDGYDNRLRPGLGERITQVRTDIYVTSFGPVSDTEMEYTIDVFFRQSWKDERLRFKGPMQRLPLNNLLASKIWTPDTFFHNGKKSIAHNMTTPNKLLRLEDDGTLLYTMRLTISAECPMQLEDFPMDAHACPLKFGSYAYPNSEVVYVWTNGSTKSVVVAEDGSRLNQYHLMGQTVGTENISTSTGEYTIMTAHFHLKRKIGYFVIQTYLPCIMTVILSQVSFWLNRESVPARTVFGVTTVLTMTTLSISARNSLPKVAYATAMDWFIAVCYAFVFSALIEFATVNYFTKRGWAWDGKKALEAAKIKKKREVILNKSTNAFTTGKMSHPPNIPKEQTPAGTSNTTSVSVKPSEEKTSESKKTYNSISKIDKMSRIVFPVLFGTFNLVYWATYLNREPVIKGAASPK
T6 sequence (P28472 26-473 partner): as the sequence (P28472 26-473 partner) above
T6 sequence (P18507 40-475): as the sequence (P18507 40-475) above
T5 sequence (P48169 36-554): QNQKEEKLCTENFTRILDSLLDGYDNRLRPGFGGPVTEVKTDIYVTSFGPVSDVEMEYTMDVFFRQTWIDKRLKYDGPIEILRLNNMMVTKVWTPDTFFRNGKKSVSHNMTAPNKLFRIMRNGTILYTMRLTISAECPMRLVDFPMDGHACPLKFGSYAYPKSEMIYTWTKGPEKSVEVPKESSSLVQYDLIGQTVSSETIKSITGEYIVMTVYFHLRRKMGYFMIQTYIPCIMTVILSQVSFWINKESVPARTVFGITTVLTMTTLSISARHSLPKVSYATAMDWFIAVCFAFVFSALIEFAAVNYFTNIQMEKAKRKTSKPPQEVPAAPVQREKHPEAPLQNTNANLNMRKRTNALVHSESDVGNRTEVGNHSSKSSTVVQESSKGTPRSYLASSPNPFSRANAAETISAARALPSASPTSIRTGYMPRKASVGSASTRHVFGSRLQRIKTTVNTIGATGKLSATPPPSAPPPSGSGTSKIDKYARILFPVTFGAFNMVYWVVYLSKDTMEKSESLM
T5 sequence (P28472 26-473 partner): as the sequence (P28472 26-473 partner) above
T5 sequence (P18507 40-475): as the sequence (P18507 40-475) above
T8 sequence (P14867 28-456): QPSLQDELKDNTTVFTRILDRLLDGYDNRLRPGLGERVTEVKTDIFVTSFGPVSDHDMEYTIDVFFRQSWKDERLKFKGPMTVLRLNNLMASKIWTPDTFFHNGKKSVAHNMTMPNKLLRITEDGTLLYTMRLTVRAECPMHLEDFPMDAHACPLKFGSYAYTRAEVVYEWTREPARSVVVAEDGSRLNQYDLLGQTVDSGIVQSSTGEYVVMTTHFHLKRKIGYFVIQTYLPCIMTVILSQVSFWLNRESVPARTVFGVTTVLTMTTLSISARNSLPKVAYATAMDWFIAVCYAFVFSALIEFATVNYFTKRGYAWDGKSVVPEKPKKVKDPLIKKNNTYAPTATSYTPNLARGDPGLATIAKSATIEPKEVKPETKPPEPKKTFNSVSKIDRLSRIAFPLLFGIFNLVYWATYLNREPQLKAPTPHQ
T8 sequence (P28472 26-473 partner): as the sequence (P28472 26-473 partner) above
T8 sequence (P18507 40-475): as the sequence (P18507 40-475) above
T3 sequence (P14867 28-456): as the sequence (P14867 28-456) above
T3 sequence (P28472 26-473 partner): as the sequence (P28472 26-473 partner) above
T3 sequence (P18507 40-475): as the sequence (P18507 40-475) above

SMILES: CC(C)(C)OC(=O)c1cc2c(cn1)[nH]c1ccccc12 [βCCt, β-carboline-3-carboxylate t-butyl ester]
- % of GABA response, α5 (GABAA α5β3γ2 receptors): 88±7%
- activity at the α6 receptor in HEK cells (α6 GABAA receptor): Minimal agonist activity
- intrinsic activity in HEK cells, α6 (α6 GABAA receptor): Intrinsic activity is seen
- activity at the α1 receptor in HEK cells (α1 GABAA receptor): Agonist and inverse-agonist activity
- intrinsic activity in HEK cells, α1 (α1 GABAA receptor): Intrinsic activity is seen
- activity at the α2 receptor in HEK cells (α2 GABAA receptor; 0.1 to 100 μM): Strong agonist activity
- intrinsic activity in HEK cells, α2 (α2 GABAA receptor; 0.1 to 100 μM): Intrinsic activity is seen
- concentration at which agonist-like effects occur, α2 (α2 GABAA receptor; HEK cells): 50 to 100 µM
- activity at the α4 receptor in HEK cells (α4 GABAA receptor): Moderate agonist activity
- intrinsic activity in HEK cells, α4 (α4 GABAA receptor): Intrinsic activity is seen
- activity at the α5 receptor in HEK cells (α5 GABAA receptor): Agonist and inverse-agonist activity
- intrinsic activity in HEK cells, α5 (α5 GABAA receptor): Intrinsic activity is seen
- activity at the α3 receptor in HEK cells (α3 GABAA receptor; 0.1 to 100 μM): Strong agonist activity
- concentration at which agonist-like effects occur, α3 (α3 GABAA receptor; HEK cells): 50 to 100 µM
- selectivity for A1 over the A5 subtype (α1β3γ2 GABAA receptor): > 110 fold
- selectivity for GABAA1 over the A2 and A3 receptors (α1β3γ2 GABAA receptor): > 10 fold

SMILES: CCCOc1cc2c(cn1)[nH]c1ccccc12.Cl [3-PBC, 3-Propoxy-β-carboline hydrochloride]
- % of GABA response, α4 (GABAA α4β3γ2 receptors): 129±3%
- % of GABA response, α1 (GABAA α1β3γ2 receptors): 113±4%
- pIC50 [1]: 7.96
